In patent US9901609B2, “Medicinal plant extract” (UNIVERSITY OF ANTWERP, priority 2013, dated 2018):

Experiment: Body weight monitoring during the in vivo experiment
Parameters: species or system dogs
Details: entire experiment (180 days)
Description: After each surgical procedure each dog received marbofloxacin 2% (1 mg/kg body weight) during 4 days. The body weight of all dogs was monitored during the entire experiment. Data are expressed as mean±SEM. Data were analyzed using one way analysis of variance (ANOVA), followed by the Bonferroni test or Kruskal-Wallis analysis and Dunnett T3. P≦0.05 was considered significant.

Question: For `C[C@H](CCC(=O)O)[C@H]1CC[C@H]2[C@@H]3[C@@H](O)C[C@@H]4C[C@H](O)CC[C@]4(C)[C@H]3CC[C@]12C` [UDCA, ursodeoxycholic acid], which “body weight of the dogs over time” value is on record?
Answer: gained or lost no body weight over time
